Measured values published in the supplement of paper PMC12463676, “Small-molecule dissolution of stress granules by redox modulation benefits ALS models” (Nature Chemical Biology, 2025).

These targets were tested with NC(=O)CCCCC1CCSS1 [lipoamide] (assay: thermal stability z-score vs DMSO; higher = more thermally stabilized by treatment). Conditions: HeLa; lipoamide concentration 100 µM; arsenate co-treatment: none.
Protocol: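 Cellular thermal proteome profiling in HeLa cells. Cells were treated with 100 µM lipoamide for 1 h, with or without 1 mM arsenate for a further 1 h, then heated to ten temperatures (37-66.3 °C), and soluble protein was quantified by TMT mass spectrometry relative to 0.1% DMSO controls. The thermal stability score (sum of log2 fold changes minus the abundance score) was transformed to a z-score; mean of n = 3 experiments.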
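Note: each temperature applied for 3 min, abundance score taken as mean log2 fold change at the two lowest temperatures, z-score obtained by mean subtraction and division by SD.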

UniProt Q8IWS0, sequence (Q8IWS0 whole entry): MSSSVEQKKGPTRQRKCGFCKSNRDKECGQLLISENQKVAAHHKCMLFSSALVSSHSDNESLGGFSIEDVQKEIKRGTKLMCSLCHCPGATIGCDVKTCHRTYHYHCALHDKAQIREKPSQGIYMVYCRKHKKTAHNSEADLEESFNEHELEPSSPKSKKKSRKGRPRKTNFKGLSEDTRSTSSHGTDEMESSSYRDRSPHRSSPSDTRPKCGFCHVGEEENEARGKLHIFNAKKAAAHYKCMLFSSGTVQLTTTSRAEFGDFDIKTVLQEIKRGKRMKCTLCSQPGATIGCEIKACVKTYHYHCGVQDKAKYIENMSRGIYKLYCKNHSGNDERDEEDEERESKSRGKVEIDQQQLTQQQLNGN
UniProt P04150, sequence (P04150 whole entry): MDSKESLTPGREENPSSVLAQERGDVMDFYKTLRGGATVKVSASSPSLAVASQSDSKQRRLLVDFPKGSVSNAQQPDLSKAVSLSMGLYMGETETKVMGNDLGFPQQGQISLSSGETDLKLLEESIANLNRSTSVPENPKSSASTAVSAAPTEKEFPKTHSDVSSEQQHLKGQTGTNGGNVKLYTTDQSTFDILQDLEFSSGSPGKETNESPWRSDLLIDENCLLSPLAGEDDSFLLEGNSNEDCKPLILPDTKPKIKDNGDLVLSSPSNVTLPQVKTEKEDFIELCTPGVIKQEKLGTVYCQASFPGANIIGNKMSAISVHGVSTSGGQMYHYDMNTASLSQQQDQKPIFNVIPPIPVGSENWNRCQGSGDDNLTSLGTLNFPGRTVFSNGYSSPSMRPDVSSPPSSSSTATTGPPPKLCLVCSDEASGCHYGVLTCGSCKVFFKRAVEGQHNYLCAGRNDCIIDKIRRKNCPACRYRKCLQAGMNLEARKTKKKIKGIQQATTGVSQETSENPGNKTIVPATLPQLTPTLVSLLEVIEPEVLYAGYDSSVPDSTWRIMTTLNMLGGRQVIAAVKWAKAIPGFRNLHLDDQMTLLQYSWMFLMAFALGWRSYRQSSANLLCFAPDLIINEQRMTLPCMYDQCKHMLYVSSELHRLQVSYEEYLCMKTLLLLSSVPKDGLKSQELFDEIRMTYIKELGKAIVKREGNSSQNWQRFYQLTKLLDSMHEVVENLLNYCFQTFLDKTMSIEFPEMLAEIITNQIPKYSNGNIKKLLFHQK
UniProt Q9NVC6, sequence (Q9NVC6 whole entry): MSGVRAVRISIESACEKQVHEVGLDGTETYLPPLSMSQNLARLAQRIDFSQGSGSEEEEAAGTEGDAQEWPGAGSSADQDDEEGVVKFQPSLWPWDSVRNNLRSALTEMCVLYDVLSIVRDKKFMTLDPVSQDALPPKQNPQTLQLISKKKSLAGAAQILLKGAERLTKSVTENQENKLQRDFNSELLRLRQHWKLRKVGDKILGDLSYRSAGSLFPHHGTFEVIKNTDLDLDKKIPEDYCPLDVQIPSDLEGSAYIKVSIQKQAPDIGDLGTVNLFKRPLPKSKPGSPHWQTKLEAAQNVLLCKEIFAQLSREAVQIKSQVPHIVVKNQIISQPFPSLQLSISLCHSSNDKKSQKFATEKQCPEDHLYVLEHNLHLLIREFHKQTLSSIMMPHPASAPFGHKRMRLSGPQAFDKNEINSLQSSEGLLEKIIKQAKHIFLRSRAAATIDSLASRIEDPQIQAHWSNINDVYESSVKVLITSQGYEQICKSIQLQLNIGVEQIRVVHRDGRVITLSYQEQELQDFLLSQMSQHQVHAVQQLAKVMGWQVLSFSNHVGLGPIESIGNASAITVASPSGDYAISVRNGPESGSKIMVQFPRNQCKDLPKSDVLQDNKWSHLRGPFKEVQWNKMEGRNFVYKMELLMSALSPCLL
UniProt Q9Y5B8, sequence (Q9Y5B8 whole entry): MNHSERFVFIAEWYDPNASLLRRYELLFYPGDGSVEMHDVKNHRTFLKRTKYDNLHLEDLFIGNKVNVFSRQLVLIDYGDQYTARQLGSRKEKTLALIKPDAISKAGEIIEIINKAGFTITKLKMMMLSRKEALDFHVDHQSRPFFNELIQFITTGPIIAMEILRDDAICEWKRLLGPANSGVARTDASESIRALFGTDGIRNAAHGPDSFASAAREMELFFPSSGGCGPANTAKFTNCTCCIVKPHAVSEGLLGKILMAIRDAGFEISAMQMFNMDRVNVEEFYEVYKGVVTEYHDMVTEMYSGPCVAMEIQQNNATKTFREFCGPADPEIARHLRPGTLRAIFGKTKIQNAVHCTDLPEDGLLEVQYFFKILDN
UniProt Q6NVY1, sequence (Q6NVY1 whole entry): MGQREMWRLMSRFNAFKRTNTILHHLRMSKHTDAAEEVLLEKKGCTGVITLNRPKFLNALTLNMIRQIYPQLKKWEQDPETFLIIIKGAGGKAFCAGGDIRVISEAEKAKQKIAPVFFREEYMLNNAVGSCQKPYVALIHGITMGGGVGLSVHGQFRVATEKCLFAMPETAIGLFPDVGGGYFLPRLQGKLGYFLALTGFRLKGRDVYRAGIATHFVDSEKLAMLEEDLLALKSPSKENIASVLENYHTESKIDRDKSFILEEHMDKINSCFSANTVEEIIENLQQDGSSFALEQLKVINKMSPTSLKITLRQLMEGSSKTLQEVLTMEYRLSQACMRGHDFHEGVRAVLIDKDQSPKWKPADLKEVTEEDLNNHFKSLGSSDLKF
UniProt Q99523, sequence (Q99523 whole entry): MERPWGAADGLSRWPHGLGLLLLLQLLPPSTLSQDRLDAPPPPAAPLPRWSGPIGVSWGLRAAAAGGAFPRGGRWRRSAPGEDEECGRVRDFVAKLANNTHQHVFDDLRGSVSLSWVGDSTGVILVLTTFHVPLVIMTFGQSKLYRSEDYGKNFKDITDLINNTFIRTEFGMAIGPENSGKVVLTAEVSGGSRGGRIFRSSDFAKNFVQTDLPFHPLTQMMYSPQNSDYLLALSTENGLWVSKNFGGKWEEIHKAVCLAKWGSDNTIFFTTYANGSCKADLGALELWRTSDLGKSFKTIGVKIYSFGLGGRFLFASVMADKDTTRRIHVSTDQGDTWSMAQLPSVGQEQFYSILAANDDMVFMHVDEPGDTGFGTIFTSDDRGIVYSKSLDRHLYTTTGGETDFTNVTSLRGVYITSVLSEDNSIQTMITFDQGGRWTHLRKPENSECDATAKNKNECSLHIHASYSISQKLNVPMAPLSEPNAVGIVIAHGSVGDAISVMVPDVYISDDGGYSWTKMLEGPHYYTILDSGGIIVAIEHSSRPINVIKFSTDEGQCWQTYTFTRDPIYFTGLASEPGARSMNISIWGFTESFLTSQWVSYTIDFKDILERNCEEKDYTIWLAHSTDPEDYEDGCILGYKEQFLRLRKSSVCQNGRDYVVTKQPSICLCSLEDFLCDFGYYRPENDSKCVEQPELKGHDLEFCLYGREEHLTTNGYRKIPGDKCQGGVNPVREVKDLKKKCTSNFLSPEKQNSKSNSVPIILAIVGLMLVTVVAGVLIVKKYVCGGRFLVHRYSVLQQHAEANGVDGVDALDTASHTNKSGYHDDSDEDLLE
UniProt Q99426, sequence (Q99426 whole entry): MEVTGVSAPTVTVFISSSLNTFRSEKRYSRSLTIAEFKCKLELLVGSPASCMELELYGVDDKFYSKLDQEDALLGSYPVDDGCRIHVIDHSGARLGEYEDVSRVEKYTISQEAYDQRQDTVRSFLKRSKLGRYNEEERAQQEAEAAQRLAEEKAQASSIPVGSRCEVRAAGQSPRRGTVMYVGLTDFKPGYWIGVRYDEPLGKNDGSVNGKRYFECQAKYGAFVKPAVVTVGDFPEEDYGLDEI
UniProt Q14344, sequence (Q14344 whole entry): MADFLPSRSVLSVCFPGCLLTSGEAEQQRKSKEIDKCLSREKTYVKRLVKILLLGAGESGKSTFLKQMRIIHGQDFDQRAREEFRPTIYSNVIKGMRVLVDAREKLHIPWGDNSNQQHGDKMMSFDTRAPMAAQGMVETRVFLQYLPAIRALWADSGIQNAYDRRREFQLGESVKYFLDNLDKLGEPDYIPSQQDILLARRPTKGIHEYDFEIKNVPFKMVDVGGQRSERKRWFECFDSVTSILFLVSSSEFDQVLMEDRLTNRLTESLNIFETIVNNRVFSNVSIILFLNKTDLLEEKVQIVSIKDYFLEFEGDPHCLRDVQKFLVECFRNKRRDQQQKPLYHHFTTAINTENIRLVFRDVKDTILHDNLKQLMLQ
UniProt P63151, sequence (P63151 whole entry): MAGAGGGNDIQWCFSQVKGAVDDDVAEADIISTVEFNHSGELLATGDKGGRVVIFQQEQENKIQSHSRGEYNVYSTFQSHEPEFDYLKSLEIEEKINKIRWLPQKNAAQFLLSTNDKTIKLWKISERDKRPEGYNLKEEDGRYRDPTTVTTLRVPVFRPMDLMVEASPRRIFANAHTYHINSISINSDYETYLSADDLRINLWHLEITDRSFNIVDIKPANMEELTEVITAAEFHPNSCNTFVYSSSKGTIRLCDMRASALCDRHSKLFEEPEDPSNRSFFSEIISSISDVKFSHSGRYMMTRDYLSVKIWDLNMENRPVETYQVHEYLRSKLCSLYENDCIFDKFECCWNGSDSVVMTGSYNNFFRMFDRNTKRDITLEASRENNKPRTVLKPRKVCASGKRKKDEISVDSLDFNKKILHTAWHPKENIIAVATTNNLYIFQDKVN
UniProt P21281, sequence (P21281 whole entry): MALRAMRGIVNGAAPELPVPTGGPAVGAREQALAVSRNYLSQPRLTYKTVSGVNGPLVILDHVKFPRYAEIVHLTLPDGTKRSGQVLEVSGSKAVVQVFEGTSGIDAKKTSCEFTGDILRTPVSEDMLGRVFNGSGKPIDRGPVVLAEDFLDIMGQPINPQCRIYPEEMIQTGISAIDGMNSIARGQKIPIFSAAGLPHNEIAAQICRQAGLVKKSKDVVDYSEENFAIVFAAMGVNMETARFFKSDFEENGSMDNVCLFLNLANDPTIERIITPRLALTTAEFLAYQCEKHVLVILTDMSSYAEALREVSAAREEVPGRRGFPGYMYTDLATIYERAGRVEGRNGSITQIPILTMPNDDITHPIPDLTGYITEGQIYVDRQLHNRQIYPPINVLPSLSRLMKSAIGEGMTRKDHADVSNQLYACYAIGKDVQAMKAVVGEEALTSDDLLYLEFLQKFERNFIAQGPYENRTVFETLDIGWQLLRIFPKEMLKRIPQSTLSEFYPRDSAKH

| Target | thermal stability z-score |
| --- | --- |
| ARHGAP10 (UniProt A1A4S6) | 0.268 |
| MON1B (UniProt Q7L1V2) | 0.582 |
| MFAP1 (UniProt P55081) | 0.245 |
| THEM6 (UniProt Q8WUY1) | 0.289 |
| NME7 (UniProt Q9Y5B8) | 0.0484 |
| MED17 (UniProt Q9NVC6) | -0.466 |
| KNSTRN (UniProt Q9Y448) | -0.171 |
| PPP4R3B (UniProt Q5MIZ7) | -0.1 |
| SQRDL (UniProt Q9Y6N5) | -1.81 |
| TBCB (UniProt Q99426) | -0.253 |
| ITGAV (UniProt P06756) | -0.316 |
| RBSN (UniProt Q9H1K0) | 0.16 |
| KXD1 (UniProt Q9BQD3) | 0.711 |
| GNA13 (UniProt Q14344) | 0.347 |
| DNAJC25 (UniProt Q9H1X3) | -0.0502 |
| PPP2R2A (UniProt P63151) | 0.531 |
| HIBCH (UniProt Q6NVY1) | -0.171 |
| EBNA1BP2 (UniProt Q99848) | -0.281 |

| Target | thermal stability z-score |
| --- | --- |
| RBM47 | -0.661 |
| NR3C1 (UniProt P04150) | -0.664 |
| VIMP (UniProt Q9BQE4) | 0.457 |
| ZNF629 (UniProt Q9UEG4) | -0.369 |
| MTX3 (UniProt Q5HYI7) | 0.179 |
| POGK (UniProt Q9P215) | 0.107 |
| SORT1 (UniProt Q99523) | 0.945 |
| GSTM3 (UniProt P21266) | 0.402 |
| DAP (UniProt P51397) | 0.89 |
| CCDC127 (UniProt Q96BQ5) | -0.371 |
| ATP6V1B2 (UniProt P21281) | -0.684 |
| KIF3B (UniProt O15066) | -0.318 |
| MTR (UniProt Q99707) | -0.00141 |
| TRRAP (UniProt Q9Y4A5) | 0.759 |
| FAM234A (UniProt Q9H0X4) | -0.499 |
| MRPL4 (UniProt Q9BYD3) | -0.59 |
| COL12A1 (UniProt Q99715) | -2.92 |
| PHF6 (UniProt Q8IWS0) | -0.552 |

These targets were tested with O=[As]([O-])(O)O.[K+] [potassium arsenate] in the same assay as above. Conditions: HeLa; arsenate concentration 1 mM.
Protocol: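 Cellular thermal proteome profiling in HeLa cells treated with 1 mM arsenate for 1 h (DMSO pretreatment), heated to ten temperatures (37-66.3 °C). Soluble protein was quantified by TMT mass spectrometry relative to DMSO controls; the thermal stability score was transformed to a z-score; mean of n = 3 experiments.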

| Target | thermal stability z-score |
| --- | --- |
| PDSS2 (UniProt Q86YH6) | -0.169 |
| LARP4B (UniProt Q92615) | -0.111 |
| KIF13A (UniProt Q9H1H9) | 0.0799 |
| TIMELESS (UniProt Q9UNS1) | -0.498 |
| SLC25A24 (UniProt Q6NUK1) | 0.205 |
| IFNGR1 (UniProt P15260) | -1.27 |
| COG3 (UniProt Q96JB2) | 2.95 |
| RPL19 (UniProt P84098) | -1.08 |
| FASN (UniProt P49327) | -1.1 |
| RPL12 (UniProt P30050) | -0.459 |
| ACADSB (UniProt P45954) | 0.00788 |
| PRG4 (UniProt Q92954) | 0.248 |
| DDX28 (UniProt Q9NUL7) | 0.0334 |
| SEC31A (UniProt O94979) | 0.497 |
| RNMT (UniProt O43148) | 0.381 |
| RPS19BP1 (UniProt Q86WX3) | -0.522 |
| ARHGAP12 (UniProt Q8IWW6) | 0.668 |
| STXBP2 (UniProt Q15833) | 0.225 |
| TPT1 (UniProt P13693) | -0.445 |
| POLR1E (UniProt Q9GZS1) | -0.0491 |
| ZNF277 (UniProt Q9NRM2) | -0.515 |
| PPIL3 (UniProt Q9H2H8) | -0.32 |
| ZNF384 (UniProt Q8TF68) | -0.241 |
| TNFAIP3 (UniProt P21580) | -0.522 |

| Target | thermal stability z-score |
| --- | --- |
| ZNFX1 (UniProt Q9P2E3) | 2.01 |
| SCAF11 (UniProt Q99590) | -1.02 |
| SEC24A (UniProt O95486) | 0.178 |
| ENOPH1 (UniProt Q9UHY7) | -0.296 |
| PLXNB2 (UniProt O15031) | -0.338 |
| LSM1 (UniProt O15116) | 0.83 |
| UBA3 (UniProt Q8TBC4) | -0.0439 |
| STX10 (UniProt O60499) | 0.516 |
| PSMC6 (UniProt P62333) | -0.23 |
| RRP1B (UniProt Q14684) | -0.0634 |
| HDAC3 (UniProt O15379) | -0.0998 |
| ARHGAP10 (UniProt A1A4S6) | 0.226 |
| MON1B (UniProt Q7L1V2) | 0.685 |
| MFAP1 (UniProt P55081) | 1.73 |
| THEM6 (UniProt Q8WUY1) | 0.723 |
| NME7 (UniProt Q9Y5B8) | -0.13 |
| MED17 (UniProt Q9NVC6) | -0.697 |
| KNSTRN (UniProt Q9Y448) | 1.36 |
| PPP4R3B (UniProt Q5MIZ7) | -0.227 |
| SQRDL (UniProt Q9Y6N5) | -1.36 |
| TBCB (UniProt Q99426) | -1.55 |
| ITGAV (UniProt P06756) | -0.323 |
| RBSN (UniProt Q9H1K0) | -0.113 |
| KXD1 (UniProt Q9BQD3) | 0.28 |

| Target | thermal stability z-score |
| --- | --- |
| GNA13 (UniProt Q14344) | -0.441 |
| DNAJC25 (UniProt Q9H1X3) | 0.282 |
| PPP2R2A (UniProt P63151) | -0.49 |
| HIBCH (UniProt Q6NVY1) | -0.476 |
| EBNA1BP2 (UniProt Q99848) | 0.463 |
| RBM47 | -0.629 |
| NR3C1 (UniProt P04150) | -0.462 |
| VIMP (UniProt Q9BQE4) | -0.948 |
| ZNF629 (UniProt Q9UEG4) | -0.114 |
| MTX3 (UniProt Q5HYI7) | -0.0757 |
| POGK (UniProt Q9P215) | 0.0895 |
| SORT1 (UniProt Q99523) | 1.41 |
| GSTM3 (UniProt P21266) | 1.48 |
| DAP (UniProt P51397) | -0.0556 |
| CCDC127 (UniProt Q96BQ5) | -0.192 |
| ATP6V1B2 (UniProt P21281) | -0.745 |
| KIF3B (UniProt O15066) | -0.47 |
| MTR (UniProt Q99707) | 0.289 |
| TRRAP (UniProt Q9Y4A5) | -1.16 |
| FAM234A (UniProt Q9H0X4) | -0.743 |
| MRPL4 (UniProt Q9BYD3) | -0.138 |
| COL12A1 (UniProt Q99715) | 0.59 |
| PHF6 (UniProt Q8IWS0) | -3.52 |
